Measurements published in patent US20190225650A1, “PEPTIDOMIMETIC MACROCYCLES AND USE THEREOF IN REGULATING HIF1ALPHA” (AILERON THERAPEUTICS, INC., priority 2013, published 2019).
Bridge positions count the residues as written; N and C are the ends. Square brackets hold non-standard residues; d marks the D form. Peptide text beside a SMILES is read from it. R8 = C=CCCCCCC[C@@](C)(N)C(=O)O; S5 = C=CCCC[C@](C)(N)C(=O)O; Nle = CCCC[C@H](N)C(=O)O; Abu = CC[C@H](N)C(=O)O

Legend:
HRE-bla ME-180 cells [1] = assay: Reporter gene assay (HRE-bla ME-180 HIF reporter, GeneBLAzer); format: cell-based, human; conditions: for EC50: 24 hour normoxia
Summary of the method: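 A FRET β-lactamase readout of HIF transcription was used. After compound treatment in 0.3% DMSO/media under normoxic conditions, 20 μl of 6× LiveBLAzer-FRET B/G (CCF4-AM) substrate was added. Plates sat 3 hr at room temperature in the dark and were read at 409 Ex/460Em and 409Ex/530Em on a Synergy 2. Inhibition was compared against DMSO vehicle controls, with chetomin as positive control.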

HRE-bla ME-180 cells [2] = assay: Cell proliferation assay (viability, MTT, 1% FBS); format: cell-based, human
Protocol: The human cervical cell line HRE-Bla ME-180 was obtained from Invitrogen. 2×10^4 ME-180 cells were plated in 96-well plates (costar) in Opti-MEM plus 1% FBS (Invitrogen). After 4 hr, cells were pretreated with chetomin, peptide or 0.5% DMSO (final concentration in media) vehicle control for 16 hr under normoxia (21% O2); then incubation continued under normoxia or hypoxia (1% O2) using a hypoxia incubator (Thermo Forma model). Viable cell numbers were quantified using CellTiter 96 Non-Radioactive Cell Proliferation kit (Promega, G4100). The results are presented in the column “Viability 1% FBS AVG (MTT V3-24 hr Normoxia) (μM)” of Table 6.

Structure (SMILES) | EC50 (HRE-bla ME-180 cells [1]) | 18 h Avg % max inhibition at top conc (HIF Rptr-24 hrs normoxia) (μM) (HRE-bla ME-180 cells [1]) | Viability 1% FBS AVG (MTT V3-24 hr Normoxia) (μM) (HRE-bla ME-180 cells [2])
CC[C@H](C)[C@H](NC(=O)[C@H](CCCNC(=N)N)NC(=O)[C@H](CC(=O)O)NC(=O)[C@H](CC(C)C)NC(=O)[C@H](C)NC(=O)[C@H](CCSC)NC(=O)[C@]1(C)CCCC=CCCC[C@](C)(NC(=O)[C@H](CCSC)NC(=O)[C@H](CC(C)C)NC(=O)[C@@H](NC(=O)[C@H](CCC(N)=O)NC(=O)[C@H](CCC(=O)O)NC(=O)[C@H](CC(=O)O)NC(=O)[C@@H](NC(=O)[C@H](Cc2ccccc2)NC(C)=O)[C@@H](C)CC)C(C)C)C(=O)N[C@@H](CC(C)C)C(=O)N[C@@H](C(C)C)C(=O)N[C@@H]([C@@H](C)CC)C(=O)N1)C(N)=O [SP-282] (Ac-FIDEQVLM[S5]LVI[S5]MALDRI-NH2; staple 9-13) | ≤ 5 µM | ++++ (≥50: ++++) | ++++ (≥30: ++++)
CC[C@H](C)[C@H](NC(=O)[C@H](CC(N)=O)NC(=O)[C@@H](NC(=O)[C@H](CCC(N)=O)NC(=O)[C@H](CC(=O)O)NC(=O)[C@H](CC(C)C)NC(=O)[C@H](C)NC(=O)[C@H](CCCNC(=N)N)NC(=O)[C@H](CC(C)C)NC(=O)[C@H](CC(C)C)NC(=O)[C@H](CCC(=O)O)NC(=O)[C@H](CCC(=O)O)NC(=O)CNC(=O)[C@H](CCC(N)=O)NC(=O)[C@H](CC(C)C)NC(=O)[C@H](CC(C)C)NC(C)=O)C(C)C)C(=O)N[C@@H](CC(=O)O)C(=O)N[C@@H](CCC(=O)O)C(=O)N[C@@H](CCC(=O)O)C(=O)N[C@H](C(=O)N[C@@H](CC(C)C)C(=O)N[C@@H](CCSC)C(=O)N[C@@]1(C)CCCC=CCCC[C@@](C)(C(=O)N[C@@H](CCSC)C(N)=O)NC(=O)[C@H]([C@@H](C)CC)NC(=O)[C@H](C(C)C)NC(=O)[C@H](CC(C)C)NC1=O)C(C)C [SP-319] (Ac-LLQGEELLRALDQVNIDEEVLM[S5]LVI[S5]M-NH2; staple 23-27) | > 30 µM | + (<10: +) | ++++ (≥30: ++++)
CC[C@@H]1NC(=O)[C@H](CC(=O)O)NC(=O)[C@H](Cc2ccc(O)cc2)NC(=O)[C@@](C)(NC(=O)[C@@H](NC(=O)[C@H](CC(C)C)NC(=O)[C@H](CCC(N)=O)NC(=O)[C@@H]2CCCN2C(=O)[C@H](CC(C)C)NC(=O)[C@H](CCC(=O)O)NC(=O)[C@H](CCCCN)NC(=O)[C@@H](NC(=O)[C@H](CCCNC(=N)N)NC(=O)[C@H](CC(=O)O)NC(=O)[C@H](CC(C)C)NC(=O)CNC(=O)[C@H](CCSC)NC(=O)[C@H](CCC(=O)O)NC(=O)[C@@H](NC(=O)[C@@H](NC(=O)[C@H](CC(C)C)NC(=O)[C@]2(C)CCCC=CCCC[C@](C)(NC(=O)[C@H](CCC(=O)O)NC(=O)[C@H](CC(=O)O)NC(=O)[C@@H](NC(=O)[C@H](Cc3ccccc3)NC(C)=O)[C@@H](C)CC)C(=O)N[C@@H](C(C)C)C(=O)N[C@@H](CC(C)C)C(=O)N[C@@H](CCSC)C(=O)N2)C(C)C)[C@@H](C)CC)[C@@H](C)CC)[C@@H](C)O)CCCC=CCCC[C@@](C)(C(=O)N[C@H](C(=O)N[C@@H](CC(N)=O)C(=O)N[C@@H](C)C(N)=O)C(C)C)NC1=O [SP-322] (Ac-FIDE[S5]VLM[S5]LVIEMGLDRIKELPQLT[S5]YD[Abu][S5]VNA-NH2; staple 5-9, 27-31) | > 30 µM | + (<10: +) | ++++ (≥30: ++++)
CCCC[C@H](NC(=O)[C@H](CCC(=O)O)NC(=O)[C@@H](NC(=O)[C@@H](NC(=O)[C@H](CC(C)C)NC(=O)[C@]1(C)CCCC=CCCC[C@](C)(NC(=O)[C@H](CCC(=O)O)NC(=O)[C@H](CC(=O)O)NC(=O)[C@@H](NC(=O)[C@H](CC(N)=O)NC(=O)[C@@H](NC(=O)[C@H](CCC(N)=O)NC(=O)[C@H](CC(=O)O)NC(=O)[C@H](CC(C)C)NC(=O)[C@H](C)NC(=O)[C@H](CCCNC(=N)N)NC(=O)[C@]2(C)CCCC=CCCC[C@](C)(NC(=O)[C@H](CCC(N)=O)NC(=O)[C@H](CC(C)C)NC(=O)[C@H](CC(C)C)NC(C)=O)C(=O)N[C@@H](CCC(=O)O)C(=O)N[C@@H](CCC(=O)O)C(=O)N[C@@H](CC(C)C)C(=O)N2)C(C)C)[C@@H](C)CC)C(=O)N[C@@H](C(C)C)C(=O)N[C@@H](CC(C)C)C(=O)N[C@@H](CCCC)C(=O)N1)C(C)C)[C@@H](C)CC)C(=O)NCC(N)=O [SP-325] (Ac-LLQ[S5]EEL[S5]RALDQVNIDE[S5]VL[Nle][S5]LVIE[Nle]G-NH2; staple 4-8, 19-23) | > 30 µM | + (<10: +) | ++++ (≥30: ++++)

Second part, led by results:

EC50 (HRE-bla ME-180 cells [1]) | Structure (SMILES) | 18 h Avg % max inhibition at top conc (HIF Rptr-24 hrs normoxia) (μM) (HRE-bla ME-180 cells [1]) | Viability 1% FBS AVG (MTT V3-24 hr Normoxia) (μM) (HRE-bla ME-180 cells [2])
> 30 µM | CCCC[C@H](NC(=O)[C@H](CCC(=O)O)NC(=O)[C@@H](NC(=O)[C@@H](NC(=O)[C@H](CC(C)C)NC(=O)[C@]1(C)CCCC=CCCC[C@](C)(NC(=O)[C@H](CCC(=O)O)NC(=O)[C@H](CC(=O)O)NC(=O)[C@@H](NC(=O)[C@H](CC(N)=O)NC(=O)[C@@H](NC(=O)[C@H](CCC(N)=O)NC(=O)[C@]2(C)CCCC=CCCC[C@](C)(NC(=O)[C@H](CC(C)C)NC(=O)[C@H](CCC(=O)O)NC(=O)[C@H](CCC(=O)O)NC(=O)CNC(=O)[C@H](CCC(N)=O)NC(=O)[C@H](CC(C)C)NC(=O)[C@H](CC(C)C)NC(C)=O)C(=O)N[C@@H](CCCNC(=N)N)C(=O)N[C@@H](C)C(=O)N[C@@H](CC(C)C)C(=O)N2)C(C)C)[C@@H](C)CC)C(=O)N[C@@H](C(C)C)C(=O)N[C@@H](CC(C)C)C(=O)N[C@@H](CCCC)C(=O)N1)C(C)C)[C@@H](C)CC)C(=O)NCC(N)=O [SP-327] (Ac-LLQGEEL[S5]RAL[S5]QVNIDE[S5]VL[Nle][S5]LVIE[Nle]G-NH2; staple 8-12, 19-23) | + (<10: +) | ++++ (≥30: ++++)
5 to 15 µM | CCCC[C@H](NC(=O)[C@]1(C)CCCC=CCCC[C@](C)(NC(=O)[C@H](CCCC)NC(=O)[C@H](CC(C)C)NC(=O)[C@@H](NC(=O)[C@H](CCC(=O)O)NC(=O)[C@H](CCC(=O)O)NC(=O)[C@H](CC(=O)O)NC(=O)[C@@H](NC(=O)[C@H](CC(N)=O)NC(=O)[C@@H](NC(=O)[C@]2(C)CCCC=CCCCCCC[C@@](C)(NC(=O)[C@H](CCC(=O)O)NC(=O)[C@H](C)NC(=O)[C@H](CCC(N)=O)NC(=O)[C@H](CC(C)C)NC(=O)[C@H](CC(C)C)NC(C)=O)C(=O)N[C@@H](CC(C)C)C(=O)N[C@@H](CC(C)C)C(=O)N[C@@H](CCCNC(=N)N)C(=O)N[C@@H](C)C(=O)N[C@@H](CC(C)C)C(=O)N[C@@H](CC(=O)O)C(=O)N2)C(C)C)[C@@H](C)CC)C(C)C)C(=O)N[C@@H](CC(C)C)C(=O)N[C@@H](C(C)C)C(=O)N[C@@H]([C@@H](C)CC)C(=O)N1)C(N)=O [SP-350] (Ac-LLQAE[R8]LLRALD[S5]VNIDEEVL[Nle][S5]LVI[S5][Nle]-NH2; staple 6-13, 23-27) | +++ (≤25 but <50: +++) | ++++ (≥30: ++++)
